3 molecules from ChEMBL document CHEMBL5653631, “A Potent and Selective ULK1 Inhibitor Suppresses Autophagy and Sensitizes Cancer Cells to Nutrient Stress” (iScience, 2018) can be followed below.

The target of test [1] is Serine/threonine-protein kinase SIK2 (Homo sapiens) (UniProt Q9H0K1). The experiment in a line: Inhibition of human recombinant QIK at 40 nM related to control ULK1.
Test [2] addresses T1, Mitogen-activated protein kinase kinase kinase 3 (Homo sapiens) (UniProt Q99759).
T1 sequence (whole entry): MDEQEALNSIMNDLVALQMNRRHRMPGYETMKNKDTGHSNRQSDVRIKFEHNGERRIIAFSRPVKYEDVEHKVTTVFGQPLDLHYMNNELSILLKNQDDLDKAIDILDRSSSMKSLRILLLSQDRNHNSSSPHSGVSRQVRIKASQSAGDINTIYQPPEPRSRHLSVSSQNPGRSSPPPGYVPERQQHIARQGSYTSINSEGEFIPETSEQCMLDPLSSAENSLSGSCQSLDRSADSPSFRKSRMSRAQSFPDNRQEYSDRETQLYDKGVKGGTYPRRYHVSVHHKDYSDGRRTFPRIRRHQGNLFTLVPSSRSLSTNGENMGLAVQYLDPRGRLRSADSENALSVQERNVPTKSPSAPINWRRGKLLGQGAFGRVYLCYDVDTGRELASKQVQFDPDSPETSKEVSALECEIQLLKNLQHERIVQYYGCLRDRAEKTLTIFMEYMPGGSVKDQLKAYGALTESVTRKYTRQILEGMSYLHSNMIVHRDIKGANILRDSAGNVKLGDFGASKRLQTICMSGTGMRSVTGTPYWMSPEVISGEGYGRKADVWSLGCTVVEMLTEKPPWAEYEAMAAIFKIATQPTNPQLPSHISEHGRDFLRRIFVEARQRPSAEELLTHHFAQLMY
The test can be described thus: Inhibition of human recombinant MAP3K3 at 40 nM related to control ULK1.

Test [3] deals with T2, Ephrin type-B receptor 2 (Homo sapiens) (UniProt P29323).
T2 sequence (whole entry): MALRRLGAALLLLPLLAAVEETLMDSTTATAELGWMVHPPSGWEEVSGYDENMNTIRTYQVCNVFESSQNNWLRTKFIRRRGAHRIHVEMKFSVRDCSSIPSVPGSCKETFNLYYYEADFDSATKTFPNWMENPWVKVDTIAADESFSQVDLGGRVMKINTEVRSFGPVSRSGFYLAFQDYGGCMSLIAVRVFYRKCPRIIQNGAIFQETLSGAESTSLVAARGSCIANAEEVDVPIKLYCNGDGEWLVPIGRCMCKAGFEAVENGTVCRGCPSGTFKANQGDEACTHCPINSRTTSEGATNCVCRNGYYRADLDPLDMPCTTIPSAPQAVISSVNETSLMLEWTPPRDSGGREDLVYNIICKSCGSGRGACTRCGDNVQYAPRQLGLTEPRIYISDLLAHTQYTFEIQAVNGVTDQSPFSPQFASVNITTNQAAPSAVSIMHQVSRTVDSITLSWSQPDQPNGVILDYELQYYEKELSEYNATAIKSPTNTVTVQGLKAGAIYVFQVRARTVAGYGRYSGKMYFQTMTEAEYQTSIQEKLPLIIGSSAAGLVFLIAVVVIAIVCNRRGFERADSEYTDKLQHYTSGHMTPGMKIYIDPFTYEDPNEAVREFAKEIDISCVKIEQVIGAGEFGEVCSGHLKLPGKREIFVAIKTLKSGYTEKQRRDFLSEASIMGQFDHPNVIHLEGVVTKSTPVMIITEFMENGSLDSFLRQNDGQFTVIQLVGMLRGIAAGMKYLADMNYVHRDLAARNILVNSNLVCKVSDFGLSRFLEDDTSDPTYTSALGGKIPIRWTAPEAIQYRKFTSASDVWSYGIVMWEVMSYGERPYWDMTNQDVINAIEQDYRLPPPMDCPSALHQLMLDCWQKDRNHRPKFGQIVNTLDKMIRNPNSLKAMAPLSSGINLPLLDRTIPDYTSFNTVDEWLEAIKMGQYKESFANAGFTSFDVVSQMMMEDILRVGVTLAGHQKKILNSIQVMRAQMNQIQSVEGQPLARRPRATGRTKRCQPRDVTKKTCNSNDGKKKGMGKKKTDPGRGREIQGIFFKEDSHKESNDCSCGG
The experiment in a line: Inhibition of human recombinant EphB2 at 500 nM in presence of ATP by radiometric assay relative to control.

Test [4] has as its target T3, Calcium/calmodulin-dependent protein kinase type IV (Homo sapiens) (UniProt Q16566).
T3 sequence (whole entry): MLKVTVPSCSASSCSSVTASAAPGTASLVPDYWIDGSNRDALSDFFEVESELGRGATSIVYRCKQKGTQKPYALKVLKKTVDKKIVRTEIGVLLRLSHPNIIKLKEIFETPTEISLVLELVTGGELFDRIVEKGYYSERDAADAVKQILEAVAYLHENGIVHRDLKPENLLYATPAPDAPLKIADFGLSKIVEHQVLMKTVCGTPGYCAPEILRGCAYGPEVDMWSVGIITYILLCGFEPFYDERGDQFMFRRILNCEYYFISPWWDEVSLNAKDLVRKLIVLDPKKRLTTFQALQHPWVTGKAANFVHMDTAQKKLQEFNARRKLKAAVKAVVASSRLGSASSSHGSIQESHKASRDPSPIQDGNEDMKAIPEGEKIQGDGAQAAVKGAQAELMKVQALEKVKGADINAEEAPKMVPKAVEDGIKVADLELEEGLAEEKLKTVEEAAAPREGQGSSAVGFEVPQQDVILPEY
The experiment in a line: Inhibition of human recombinant CaMK4 at 500 nM in presence of ATP by radiometric assay relative to control.

In test [5] the target is LIM domain kinase 1 (Homo sapiens) (UniProt P53667). The experiment in a line: Inhibition of human recombinant LIMK1 at 500 nM related to control ULK1.
Sequence of LIM domain kinase 1 (Homo sapiens) (P53667 whole entry, looked up, the tested form may be a part): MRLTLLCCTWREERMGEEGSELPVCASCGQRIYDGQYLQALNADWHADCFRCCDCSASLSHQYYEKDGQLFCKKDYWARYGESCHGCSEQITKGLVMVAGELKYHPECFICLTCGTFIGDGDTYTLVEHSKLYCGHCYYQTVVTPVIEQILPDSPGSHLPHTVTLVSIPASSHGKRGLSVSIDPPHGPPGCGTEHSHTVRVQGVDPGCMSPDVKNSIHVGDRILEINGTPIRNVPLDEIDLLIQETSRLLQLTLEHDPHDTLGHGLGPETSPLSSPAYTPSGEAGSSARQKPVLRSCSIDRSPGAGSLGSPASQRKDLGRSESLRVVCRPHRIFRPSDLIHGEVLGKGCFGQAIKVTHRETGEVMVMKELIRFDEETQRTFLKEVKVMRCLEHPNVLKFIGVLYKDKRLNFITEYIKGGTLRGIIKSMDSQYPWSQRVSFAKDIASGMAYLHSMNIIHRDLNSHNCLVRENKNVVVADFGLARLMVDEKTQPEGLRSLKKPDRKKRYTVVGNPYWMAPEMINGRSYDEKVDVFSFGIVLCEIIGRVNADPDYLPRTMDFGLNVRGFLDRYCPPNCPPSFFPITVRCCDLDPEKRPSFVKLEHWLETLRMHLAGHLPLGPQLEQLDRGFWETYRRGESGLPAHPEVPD
Test [6] concerns the target Protein-tyrosine kinase 2-beta (Homo sapiens) (UniProt Q14289). The test can be described thus: Inhibition of human recombinant PYK2 at 500 nM in presence of ATP by radiometric assay relative to control.
The target of test [7] is Serine/threonine-protein kinase PAK 4 (Homo sapiens) (UniProt O96013). The experiment in a line: Inhibition of human recombinant PAK4 at 15 nM related to control ULK1.
Sequence of Serine/threonine-protein kinase PAK 4 (Homo sapiens) (O96013 whole entry, looked up): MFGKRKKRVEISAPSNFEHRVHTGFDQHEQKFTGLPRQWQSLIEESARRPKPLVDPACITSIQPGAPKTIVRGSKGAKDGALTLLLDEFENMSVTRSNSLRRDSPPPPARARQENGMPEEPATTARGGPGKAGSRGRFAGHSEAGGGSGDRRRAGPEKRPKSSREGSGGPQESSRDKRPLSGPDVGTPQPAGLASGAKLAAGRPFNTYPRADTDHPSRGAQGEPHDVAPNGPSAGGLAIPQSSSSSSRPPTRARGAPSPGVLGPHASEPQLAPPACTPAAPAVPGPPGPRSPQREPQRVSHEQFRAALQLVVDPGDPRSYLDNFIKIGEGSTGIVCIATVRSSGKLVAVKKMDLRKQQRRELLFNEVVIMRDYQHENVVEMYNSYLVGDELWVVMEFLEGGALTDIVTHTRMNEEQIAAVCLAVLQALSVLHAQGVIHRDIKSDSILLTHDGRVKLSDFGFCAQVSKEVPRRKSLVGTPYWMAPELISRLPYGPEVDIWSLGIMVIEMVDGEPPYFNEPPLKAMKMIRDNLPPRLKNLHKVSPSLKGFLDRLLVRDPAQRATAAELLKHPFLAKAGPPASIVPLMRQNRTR
For test [8] the target is unchanged. The test can be described thus: Inhibition of human recombinant PAK4 at 15 nM in presence of ATP by radiometric assay relative to control.
Test [9] addresses Serine/threonine-protein kinase pim-1 (Homo sapiens) (UniProt P11309). The test can be described thus: Inhibition of human recombinant PIM1 at 15 nM in presence of ATP by radiometric assay relative to control.
The target of test [10] is Mitogen-activated protein kinase 8 (Homo sapiens) (UniProt P45983). The test can be described thus: Inhibition of human recombinant JNK1 at 15 nM in presence of ATP by radiometric assay relative to control.
Sequence of Mitogen-activated protein kinase 8 (Homo sapiens) (P45983 whole entry): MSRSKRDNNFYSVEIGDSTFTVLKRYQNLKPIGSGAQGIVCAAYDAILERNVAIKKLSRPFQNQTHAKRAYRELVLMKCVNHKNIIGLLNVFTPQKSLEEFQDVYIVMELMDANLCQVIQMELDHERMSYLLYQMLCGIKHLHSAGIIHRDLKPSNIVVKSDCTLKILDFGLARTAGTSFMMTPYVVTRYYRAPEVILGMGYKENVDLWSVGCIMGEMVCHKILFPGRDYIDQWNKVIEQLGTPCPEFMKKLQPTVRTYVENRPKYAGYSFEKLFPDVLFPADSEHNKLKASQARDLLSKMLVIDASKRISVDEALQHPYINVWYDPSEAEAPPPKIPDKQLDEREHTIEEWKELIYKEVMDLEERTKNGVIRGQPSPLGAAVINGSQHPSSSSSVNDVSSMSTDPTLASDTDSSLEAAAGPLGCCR

Sequence of Protein-tyrosine kinase 2-beta (Homo sapiens) (Q14289 whole entry, looked up): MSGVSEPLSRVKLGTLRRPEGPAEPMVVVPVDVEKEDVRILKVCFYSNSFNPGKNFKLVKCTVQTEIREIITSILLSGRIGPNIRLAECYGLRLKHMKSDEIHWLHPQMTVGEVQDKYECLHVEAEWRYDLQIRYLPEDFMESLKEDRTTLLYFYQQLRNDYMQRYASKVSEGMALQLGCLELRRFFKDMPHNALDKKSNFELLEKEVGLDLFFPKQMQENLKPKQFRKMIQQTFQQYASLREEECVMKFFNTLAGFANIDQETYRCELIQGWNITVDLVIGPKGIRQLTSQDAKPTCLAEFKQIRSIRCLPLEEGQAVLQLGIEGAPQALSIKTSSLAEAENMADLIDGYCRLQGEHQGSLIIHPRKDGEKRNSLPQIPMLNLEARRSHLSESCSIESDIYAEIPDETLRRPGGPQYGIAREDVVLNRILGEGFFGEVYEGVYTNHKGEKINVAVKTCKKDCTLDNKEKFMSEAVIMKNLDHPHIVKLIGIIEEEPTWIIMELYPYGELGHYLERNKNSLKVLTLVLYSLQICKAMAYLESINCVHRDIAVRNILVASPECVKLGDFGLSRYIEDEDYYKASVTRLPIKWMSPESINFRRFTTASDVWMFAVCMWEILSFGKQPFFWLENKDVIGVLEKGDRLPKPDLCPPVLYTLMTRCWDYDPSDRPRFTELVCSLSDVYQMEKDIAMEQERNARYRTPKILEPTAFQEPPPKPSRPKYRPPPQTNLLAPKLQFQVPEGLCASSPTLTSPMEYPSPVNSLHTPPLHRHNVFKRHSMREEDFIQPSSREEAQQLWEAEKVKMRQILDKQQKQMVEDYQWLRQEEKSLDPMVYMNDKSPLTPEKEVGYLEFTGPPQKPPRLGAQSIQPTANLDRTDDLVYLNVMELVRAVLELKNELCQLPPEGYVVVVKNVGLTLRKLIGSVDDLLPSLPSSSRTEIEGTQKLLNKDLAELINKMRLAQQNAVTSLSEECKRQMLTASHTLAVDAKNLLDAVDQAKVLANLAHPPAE
Sequence of Serine/threonine-protein kinase SIK2 (Homo sapiens) (Q9H0K1 whole entry, looked up): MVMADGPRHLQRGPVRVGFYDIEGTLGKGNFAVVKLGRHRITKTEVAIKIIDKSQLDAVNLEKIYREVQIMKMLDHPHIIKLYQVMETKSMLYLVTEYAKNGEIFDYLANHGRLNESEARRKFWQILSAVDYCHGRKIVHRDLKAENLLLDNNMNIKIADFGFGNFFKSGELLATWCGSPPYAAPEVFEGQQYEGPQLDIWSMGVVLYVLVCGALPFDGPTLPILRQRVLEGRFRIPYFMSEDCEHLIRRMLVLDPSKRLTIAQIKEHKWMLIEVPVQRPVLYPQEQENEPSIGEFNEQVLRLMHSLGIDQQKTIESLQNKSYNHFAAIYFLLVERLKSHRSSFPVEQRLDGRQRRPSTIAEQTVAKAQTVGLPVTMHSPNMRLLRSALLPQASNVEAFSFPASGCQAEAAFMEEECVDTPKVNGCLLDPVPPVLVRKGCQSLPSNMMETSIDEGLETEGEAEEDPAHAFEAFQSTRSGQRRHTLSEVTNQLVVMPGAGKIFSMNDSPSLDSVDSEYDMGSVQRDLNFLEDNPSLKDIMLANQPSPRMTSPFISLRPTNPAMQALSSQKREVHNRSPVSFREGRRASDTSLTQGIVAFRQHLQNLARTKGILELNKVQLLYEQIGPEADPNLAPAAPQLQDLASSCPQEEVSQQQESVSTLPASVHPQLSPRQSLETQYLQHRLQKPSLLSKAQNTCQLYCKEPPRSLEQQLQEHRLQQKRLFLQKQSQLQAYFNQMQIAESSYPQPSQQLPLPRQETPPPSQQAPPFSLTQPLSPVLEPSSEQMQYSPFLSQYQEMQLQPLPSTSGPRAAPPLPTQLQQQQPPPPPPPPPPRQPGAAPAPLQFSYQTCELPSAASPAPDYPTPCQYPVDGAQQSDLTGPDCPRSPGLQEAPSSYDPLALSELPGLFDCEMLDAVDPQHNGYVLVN
Sequence of Serine/threonine-protein kinase pim-1 (Homo sapiens) (P11309 whole entry, looked up): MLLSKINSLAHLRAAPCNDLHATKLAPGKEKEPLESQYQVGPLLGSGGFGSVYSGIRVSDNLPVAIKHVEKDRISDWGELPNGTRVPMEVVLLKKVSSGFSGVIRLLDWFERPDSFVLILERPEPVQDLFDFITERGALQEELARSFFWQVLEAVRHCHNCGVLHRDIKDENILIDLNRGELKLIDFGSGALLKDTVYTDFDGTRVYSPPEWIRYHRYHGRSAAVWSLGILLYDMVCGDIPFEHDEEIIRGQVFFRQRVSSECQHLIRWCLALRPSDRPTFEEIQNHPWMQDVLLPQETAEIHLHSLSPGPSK

Consider `O=C(N[C@@H](C1CC1)C(F)(F)F)c1cc(-c2cnn3cc(-c4ccc(F)cc4)cnc23)cs1`, for which the fold change (FC) in [1] came out at 0.74; in [2], 0.

Turning to `CNC(=O)c1ccccc1Oc1nc(Nc2cc(OC)c(OC)c(OC)c2)ncc1Br`, the inhibition (commonly the relative decrease from the control value, in per cent) in test [3] was found to be 15%; in test [4], 0%; in test [6], 53%. Further, the fold change (FC) in [5] was determined as 0.03.

With `CC(C)[C@H](NC(=O)c1cc(-c2cnn3cc(-c4ccc(OCCN5CCCCC5)cc4)cnc23)cs1)C(F)(F)F`, in test [7], the fold change (FC) amounted to 0. In addition, the values for the inhibition in test [8], in test [9] and in [10] were 0%, 14% and 8%, respectively.
